Assay results as given in PMC6980355 (Journal of medicinal chemistry, 2019).
Values after ≈ are worked out from the molar mass of the structure shown.

Tests used:
E. coli (ΔtolC) = type: cell-based; settings: for MIC E. coli (ΔtolC): knockout of efflux pump component TolC; for MIC E. coli (ΔtolC) +PMBN: PMBN 8 μg/mL
[1] = system: P. aeruginosa (ΔmexAB, etc.); type: cell-based; settings: knockouts of MexAB-OprM, MexCD-OprJ, MexEF-OprN
P. aeruginosa BC = P. aeruginosa BC (Pseudomonas aeruginosa, UniProt P37798); test: P. aeruginosa BC enzyme assay; settings: relative to parent 4a
E. coli (ATCC 25922) = test: Bacterial Cytological Profiling; type: cell-based; settings: ~3-fold the MIC for 2 hours (for 1); fluorescence microscopy
[2] = system: P. aeruginosa mexT mutants; type: cell-based; settings: for potency reduction by any mexT mutation: any of the three individual mexT mutations
pKa = type: physicochemical

P. aeruginosa BC, sequence (P37798 whole entry): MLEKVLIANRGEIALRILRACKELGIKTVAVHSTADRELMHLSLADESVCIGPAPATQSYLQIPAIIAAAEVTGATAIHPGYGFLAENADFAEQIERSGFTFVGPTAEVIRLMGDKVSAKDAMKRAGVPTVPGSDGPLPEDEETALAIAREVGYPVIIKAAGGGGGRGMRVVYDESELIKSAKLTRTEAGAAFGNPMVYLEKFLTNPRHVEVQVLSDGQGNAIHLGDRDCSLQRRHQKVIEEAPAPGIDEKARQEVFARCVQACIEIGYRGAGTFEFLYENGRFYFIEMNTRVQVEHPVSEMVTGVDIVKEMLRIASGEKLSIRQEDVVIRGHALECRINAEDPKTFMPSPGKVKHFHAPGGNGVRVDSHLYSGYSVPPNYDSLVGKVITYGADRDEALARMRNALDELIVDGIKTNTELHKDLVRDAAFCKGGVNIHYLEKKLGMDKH

Row | Structure (SMILES) | MIC E. coli (ΔtolC) (E. coli (ΔtolC)) [µg/mL] | MIC E. coli (ΔtolC) +PMBN (E. coli (ΔtolC)) [µg/mL] | MIC P. aeruginosa (ΔmexAB, etc.) [1] [µg/mL] | further results
1 | Nc1ncc2cc(-c3c(Cl)cccc3Cl)c(N)nc2n1 [4a] | 0.5 (≈ 1.63 µM) | 0.25 (≈ 0.817 µM) | 16 (≈ 52.3 µM) | 
2 | Nc1ncc2cc(-c3ccccc3-c3ccccc3)c(N)nc2n1 [4b, 6-([1,1'-biphenyl]-2-yl)pyrido[2,3-d]pyrimidine-2,7-diamine] | 0.5 (≈ 1.6 µM) | 0.25 (≈ 0.798 µM) |  | 
3 | Nc1ncc2cc(-c3ccccc3-c3cccnc3)c(N)nc2n1 [4c, 6-[2-(3-pyridyl)phenyl]pyrido[2,3-d]pyrimidine-2,7-diamine] | 2 (≈ 6.36 µM) | 0.5 (≈ 1.59 µM) | 16 (≈ 50.9 µM) | 
4 | Nc1ncc2cc(-c3c(Cl)cccc3-c3cccnc3)c(N)nc2n1 [4d, 6-[2-chloro-6-(3-pyridyl)phenyl]pyrido[2,3-d]pyrimidine-2,7-diamine] |  |  | 4 (≈ 11.5 µM) | 
5 | CC(C)COc1cccc(Cl)c1-c1cc2cnc(N)nc2nc1N [4f, 6-(2-chloro-6-isobutoxy-phenyl)pyrido[2,3-d]pyrimidine-2,7-diamine] | 0.25 (≈ 0.727 µM) |  |  | 
6 | Nc1ncc2cc(-c3c(Cl)cccc3Cl)c(N3CCC(N)(CO)C3)nc2n1 (stereo not drawn) [13c, [3-amino-1-[2-amino-6-(2,6-dichlorophenyl)pyrido[2,3-d]pyrimidin-7-yl]pyrrolidin-3-yl]methanol] | 1 (≈ 2.47 µM) |  |  | 
7 | NCC1(F)CCN(c2nc3nc(N)ncc3cc2-c2c(Cl)cccc2Cl)C1 (stereo not drawn) [13d, 7-[3-(aminomethyl)-3-fluoro-pyrrolidin-1-yl]-6-(2,6-dichlorophenyl)pyrido[2,3-d]pyrimidin-2-amine] |  | 1 (≈ 2.46 µM) |  | 
8 | NCC1(O)CCN(c2nc3nc(N)ncc3cc2-c2c(Cl)cccc2Cl)C1 (stereo not drawn) [13e, 1-[2-amino-6-(2,6-dichlorophenyl)pyrido[2,3-d]pyrimidin-7-yl]-3-(aminomethyl)pyrrolidin-3-ol] | 1 (≈ 2.47 µM) |  | >64 | 
9 | NCC1CCN(c2nc3nc(N)ncc3cc2-c2c(Cl)cccc2Cl)C1 (stereo not drawn) [13f, 7-[3-(aminomethyl)pyrrolidin-1-yl]-6-(2,6-dichlorophenyl)pyrido[2,3-d]pyrimidin-2-amine] |  |  |  | improvement in BC inhibition (IC50) compared to 4a (P. aeruginosa BC): 5 fold; cytological profile (E. coli (ATCC 25922)): cytological profiles very similar to each other and to parent compound 1
10 | NCC1CCN(c2nc3nc(N)ncc3cc2-c2c(Cl)cccc2Cl)CC1 [13g, 7-[4-(aminomethyl)-1-piperidyl]-6-(2,6-dichlorophenyl)pyrido[2,3-d]pyrimidin-2-amine] | 1 (≈ 2.48 µM) |  | 64 (≈ 159 µM) | 
11 | Nc1ncc2cc(-c3c(Cl)cccc3Cl)c(N3C[C@@H]4[C@@H](N)[C@@H]4C3)nc2n1 [13h, 7-((1R,5S,6s)-6-amino-3-azabicyclo[3.1.0]hexan-3-yl)-6-(2,6-dichlorophenyl)pyrido[2,3-d]pyrimidin-2-amine] |  |  |  | improvement in BC inhibition (IC50) compared to 4a (P. aeruginosa BC): ~10 fold
12 | Nc1ncc2cc(-c3c(Cl)cccc3-c3cccnc3)c(N3C[C@@H]4[C@@H](N)[C@@H]4C3)nc2n1 [14a, 7-[(1R,5S)-6-amino-3-azabicyclo[3.1.0]hexan-3-yl)-6-[2-chloro-6-(3-pyridyl)phenyl]pyrido[2,3-d]pyrimidin-2-amine] | 0.03 (≈ 0.0698 µM) |  |  | potency reduction by any mexT mutation [2]: unaffected
13 | Nc1ncc2cc(-c3c(Cl)cccc3-c3ccncc3)c(N3C[C@@H]4[C@@H](N)[C@@H]4C3)nc2n1 [14b, 7-[(1R,5S)-6-amino-3-azabicyclo[3.1.0]hexan-3-yl)-6-[2-chloro-6-(4-pyridyl)phenyl]pyrido[2,3-d]pyrimidin-2-amine] | 0.03 (≈ 0.0698 µM) | 0.015 (≈ 0.0349 µM) | 2 (≈ 4.65 µM) | 
14 | COc1ncc(-c2cccc(Cl)c2-c2cc3cnc(N)nc3nc2N2C[C@@H]3[C@@H](N)[C@@H]3C2)cc1F [14c, 7-[(1R,5S)-6-amino-3-azabicyclo[3.1.0]hexan-3-yl)-6-[2-chloro-6-(5-fluoro-6-methoxy-3-pyridyl)phenyl]pyrido[2,3-d]pyrimidin-2-amine] | 0.015 (≈ 0.0314 µM) | 0.008 (≈ 0.0167 µM) | 2 (≈ 4.18 µM) | 
15 | Cc1ncc(-c2cccc(Cl)c2-c2cc3cnc(N)nc3nc2N2C[C@@H]3[C@@H](N)[C@@H]3C2)s1 [14d, 7-[(1R,5S)-6-amino-3-azabicyclo[3.1.0]hexan-3-yl)-6-[2-chloro-6-(2-methylthiazol-5-yl)phenyl]pyrido[2,3-d]pyrimidin-2-amine] | 0.008 (≈ 0.0178 µM) |  | 1 (≈ 2.22 µM) | 
16 | CC(C)COc1cccc(Cl)c1-c1cc2cnc(N)nc2nc1N1C[C@@H]2[C@@H](N)[C@@H]2C1 [14e, 7-[(1R,5S)-6-amino-3-azabicyclo[3.1.0]hexan-3-yl)-6-(2-chloro-6-isobutoxy-phenyl)pyrido[2,3-d]pyrimidin-2-amine] | 0.03 (≈ 0.0706 µM) | 0.015 (≈ 0.0353 µM) |  | potency reduction by any mexT mutation [2]: unaffected; cytological profile (E. coli (ATCC 25922)): cytological profiles very similar to each other and to parent compound 1
17 | O=C(O)c1cn(C2CC2)c2cc(N3CCNCC3)c(F)cc2c1=O [ciprofloxacin, reference compound] |  |  |  | resistance of mexT mutants to the antibiotic ([2]; data not shown): elevated resistance
18 | Nc1ncc2cc(-c3c(Br)cccc3Br)c(N)nc2n1 [compound 1, reference compound] | 0.5 (≈ 1.27 µM) | 0.12 (≈ 0.304 µM) | 16 (≈ 40.5 µM) | potency reduction by any mexT mutation [2]: > 8 fold; pKa (pKa): 4.8
